Legend:
ICR mice = settings: mouse, in vivo, po
Source text: Compounds obtained in Synthetic Examples 18, 35, and 66 were orally administered to ICR mice (each dose to each group consisting of 10 mice).

[1] = system: sole reaction in sheep red blood cells (SRBC); experiment: sole reaction to sheep red blood cells (SRBC), foot volume increase 24 hours after induction; format: in vivo, BALB/c mice; settings: 3.0 x 10⁻⁴ mol/kg orally for four days after the sensitization
Method: The actions of the compounds of the present invention in the course of creation of the cellular immunity were studied using the sole reaction in sheep red blood cells (SRBC).
BALB/c mice (female, age: 7 weeks) were sensitized by injecting 0.2 ml of SRBC adjusted to 2.5 x 10⁵ cells/ml with a physiological saline solution into caudal vein. Four days after the sensitization, the volume of the right foot of the mice was measured. Then, 0.025 ml of SRBC from the same lot as above adjusted to 4 x 10⁹ cells/ml was subcutaneously injected into the right sole to induce a reaction. 24 hours after the reaction has been induced, the intensity of the reaction was determined by subtracting the right foot volume before the reaction from the volume after the reaction. The test compounds at a concentration of 3.0 x 10⁻⁴ mol/kg were orally administered for four days after the sensitization.

[2] = against Control 2 (5% ethanol-olive oil)
[3] = against Control 3 (Purified water)

COc1ccc(CCNCCc2ccc(O)c(OC)c2)cc1O [Synthetic Example 66, N-(4-hydroxy-3-methoxyphenetyl)-3-hydroxy-4-methoxyphenetylamine]
dose up to which no death was caused (ICR mice): ≤ 1,000 mg/kg

CN(Cc1ccc(O)cc1)C(=O)c1cccc(O)c1 [Synthetic Example 25, N-(4-hydroxybenzyl)-N-methyl-3-hydroxybenzamide]
Rate of suppression (%) [1, 2]: 26.7%

COc1ccc(CN(C)Cc2ccc(O)c(OC)c2)cc1O [Synthetic Example 35, N-(4-hydroxy-3-methoxybenzyl)-N-methyl-3-hydroxy-4-methoxybenzylamine]
dose up to which no death was caused (ICR mice): ≤ 1,000 mg/kg

CN(Cc1ccc(O)cc1)Cc1cccc(O)c1 [Synthetic Example 30, N-(4-hydroxybenzyl)-N-methyl-3-hydroxybenzylamine]
Rate of suppression (%) [1, 2]: 33.2%

Oc1cccc(CNCc2cccc(O)c2)c1 [Synthetic Example 7, N,N-bis(3-hydroxybenzyl)amine]
Rate of suppression (%) [1, 3]: 54.4%

COc1ccc(CN(C)Cc2cccc(OC)c2)cc1 [Synthetic Example 27, N-(4-methoxybenzyl)-N-methyl-3-methoxybenzylamine]
Rate of suppression (%) [1, 3]: 32.8%

CCN(Cc1ccc(O)cc1)Cc1cccc(O)c1 [Synthetic Example 61, N-ethyl-N-(4-hydroxybenzyl)-3-hydroxybenzylamine]
Rate of suppression (%) [1, 2]: 21.8%

COc1ccc(CNCc2ccc(OC)cc2)cc1.O=C(O)/C=C\C(=O)O [Synthetic Example 46, N,N-bis(4-methoxybenzyl)amine maleate]
Rate of suppression (%) ([1]; against Control 1 (0.5% gum arabic-purified water)): 38.1%

COc1ccc(CC(=O)NCCc2ccc(O)c(OC)c2)cc1O [Synthetic Example 18, N-(4-hydroxy-3-methoxyphenetyl)-3-hydroxy-4-methoxyphenylacetamide]
dose up to which no death was caused (ICR mice): ≤ 1,000 mg/kg

— EP0613879A1, “PHELLODENDRINE ANALOGS AND ALLERGY TYPE IV SUPPRESSOR CONTAINING THE SAME AS ACTIVE INGREDIENT” (TSUMURA & CO., priority 1991, dated 1992)
